Experimental data: publication doi:10.1101/2020.02.18.954925v1 (biorxiv, 2020)

Target: Lpg2603 10-C (Legionella pneumophila, UniProt Q5ZSB6)
Assay: biochemical

Sequence of Lpg2603 10-C (Q5ZSB6 10-434 limits assumed): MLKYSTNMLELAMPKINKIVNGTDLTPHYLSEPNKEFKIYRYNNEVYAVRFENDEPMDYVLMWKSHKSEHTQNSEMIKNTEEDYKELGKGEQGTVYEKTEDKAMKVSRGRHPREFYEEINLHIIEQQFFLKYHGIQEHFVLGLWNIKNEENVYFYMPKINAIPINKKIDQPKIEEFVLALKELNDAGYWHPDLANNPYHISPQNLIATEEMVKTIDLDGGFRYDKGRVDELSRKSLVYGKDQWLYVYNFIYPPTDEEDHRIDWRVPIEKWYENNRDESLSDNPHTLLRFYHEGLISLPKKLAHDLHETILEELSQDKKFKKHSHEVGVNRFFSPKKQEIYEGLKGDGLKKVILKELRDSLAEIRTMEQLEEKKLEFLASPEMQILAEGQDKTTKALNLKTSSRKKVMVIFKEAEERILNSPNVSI

**Q.** O=P(O)(O)O[C@H]1[C@H](OP(=O)(O)O)[C@@H](OP(=O)(O)O)[C@H](OP(=O)(O)O)[C@@H](OP(=O)(O)O)[C@H]1OP(=O)(O)O [inositol hexakisphosphate] was tested. Which Kd did it give?
**A.** ~315 µM
